From US9924715B2, “Zinc or copper (II) salt and use thereof as a biocide” (LABORATORIYA BIO ZET, LLC, priority 2014, dated 2018)
Several values for one entry are separate records, joined by “and”; a condition that tells them apart may be missing. Equal entries are not always repeated.

Legend:
Assay type in all cases: cell-based
[1] = tested on: fungal spores; experiment: Fungicidal activity, GOST 30028.4-2006, resistance of treated materials
Experimental: The fungicidal activity of the proposed salts is determined according to GOST 30028.4-2006 by testing samples of various materials treated with these salts for resistance to fungal spores. Test results in terms of tolerance time (in days) are given in Table 4 wherein tolerance time for untreated materials are given for comparison.

[2] = tested on: clinical strain P. aeruginosa; experiment: Bactericidal activity: exposure in solution, neutralization, inoculation on solid medium; design: key to Bacterial growth after exposure (colony-forming units in 1 ml): NG—no growth; CG—confluent growth; conditions: for Bactericidal effect: 4.0%
[3] = tested on: E. coli No. 906; experiment: as above; design: key to Bacterial growth after exposure (colony-forming units in 1 ml): NG—no growth; CG—confluent growth; conditions: for Bacterial growth after exposure (colony-forming units in 1 ml): E. coli 906; for Bactericidal effect: E. coli No. 906
[4] = tested on: S. aureus No. 1257; experiment: as above; design: key to Bacterial growth after exposure (colony-forming units in 1 ml): NG—no growth; CG—confluent growth; conditions: for Bacterial growth after exposure (colony-forming units in 1 ml): S. aureus 1257; for Bactericidal effect: S. aureus No. 1257
[5] = Emulsion polyvinyl chloride, additive content 5 wt %, untreated control 6 days
[6] = Paper impregnated with latex SKS 65 GP, additive content 5 wt %, untreated control 4 days

Compound	Tolerance time [1, 5] [days]	Tolerance time [1, 6] [days]	Bacterial growth after exposure (colony-forming units in 1 ml) ([3]; 2.0 wt %, exposure 5 min)	Bacterial growth after exposure (colony-forming units in 1 ml) ([3]; 2.0 wt %, exposure 15 min) [CFU]	Bacterial growth after exposure (colony-forming units in 1 ml) ([3]; 2.0 wt %, exposure 30 min)	Bacterial growth after exposure (colony-forming units in 1 ml) ([3]; 4.0 wt %, exposure 5 min)	Bacterial growth after exposure (colony-forming units in 1 ml) ([3]; 4.0 wt %, exposure 15 min)	Bacterial growth after exposure (colony-forming units in 1 ml) ([3]; 4.0 wt %, exposure 30 min)	Bacterial growth after exposure (colony-forming units in 1 ml) ([3]; 4.0 wt %, exposure 60 min)	Bacterial growth after exposure (colony-forming units in 1 ml) ([4]; 2.0 wt %, exposure 5 min)	Bacterial growth after exposure (colony-forming units in 1 ml) ([4]; 2.0 wt %, exposure 15 min)	Bacterial growth after exposure (colony-forming units in 1 ml) ([4]; 2.0 wt %, exposure 30 min)	Bacterial growth after exposure (colony-forming units in 1 ml) ([4]; 4.0 wt %, exposure 5 min)	Bacterial growth after exposure (colony-forming units in 1 ml) ([4]; 4.0 wt %, exposure 15 min)	Bacterial growth after exposure (colony-forming units in 1 ml) ([4]; 4.0 wt %, exposure 30 min)	Bacterial growth after exposure (colony-forming units in 1 ml) ([4]; 4.0 wt %, exposure 60 min)	also measured
C=CC(=O)[O-].CCCCCCCCCC(=O)[O-].[Cu+2] [Copper acrylate-caprinate]	20	19															Tolerance time ([1]; Paper impregnated with petrolatum base, additive content 5 wt %, untreated control 15 days): 21 days
C=CC(=O)[O-].CCCCCCCCCCCCCCCCCC(=O)[O-].[Cu+2] [Copper acrylate-stearate]	12	16	CG	100	10 CFU	NG	NG	NG	NG	CG	>300 CFU	25 CFU	NG	NG	NG	NG	Bacterial growth after exposure (colony-forming units in 1 ml) ([2]; 2.0 wt %, exposure 5 min): CG; Bacterial growth after exposure (colony-forming units in 1 ml) ([2]; 2.0 wt %, exposure 15 min): CG; Bacterial growth after exposure (colony-forming units in 1 ml) ([2]; 2.0 wt %, exposure 30 min): CG; Bacterial growth after exposure (colony-forming units in 1 ml) ([2]; 2.0 wt %, exposure 60 min): CG; Bactericidal effect ([2]; exposure of more than 30 min): bactericidal effect; Bacterial growth after exposure (colony-forming units in 1 ml) ([2]; 4.0 wt %, exposure 5 min): CG; Bacterial growth after exposure (colony-forming units in 1 ml) ([2]; 4.0 wt %, exposure 15 min): >300 CFU; Bacterial growth after exposure (colony-forming units in 1 ml) ([2]; 4.0 wt %, exposure 60 min): NG; Bacterial growth after exposure (colony-forming units in 1 ml) ([3]; 2.0 wt %, exposure 60 min): NG; Bactericidal effect ([3]; 2.0%, exposure 60 min): sustained bactericidal effect; Bactericidal effect ([3]; 4.0%, exposure from 5 min): sustained bactericidal effect; Bacterial growth after exposure (colony-forming units in 1 ml) ([4]; 2.0 wt %, exposure 60 min): NG; Bactericidal effect ([4]; 2.0%, exposure 60 min): sustained bactericidal effect; Bactericidal effect ([4]; 4.0%, exposure from 5 min): sustained bactericidal effect
C/C=C/C(=O)[O-].C=CC(=O)[O-].[Zn+2] [Zinc acrylate-crotonate, zinc acrylate-crotonate]			75 CFU	42	>300 CFU	NG	NG	NG	NG	CG	CG	CG	7 CFU	NG	NG	NG	Bacterial growth after exposure (colony-forming units in 1 ml) ([2]; 2.0 wt %, exposure 5 min): >300 CFU; Bacterial growth after exposure (colony-forming units in 1 ml) ([2]; 2.0 wt %, exposure 15 min): 10 CFU; Bacterial growth after exposure (colony-forming units in 1 ml) ([2]; 2.0 wt %, exposure 30 min): 4 CFU; Bactericidal effect ([2]; exposure from 15 min): sustained bactericidal effect; Bacterial growth after exposure (colony-forming units in 1 ml) ([2]; 4.0 wt %, exposure 5 min): 1 CFU; Bacterial growth after exposure (colony-forming units in 1 ml) ([2]; 4.0 wt %, exposure 15 min): NG; Bacterial growth after exposure (colony-forming units in 1 ml) ([2]; 4.0 wt %, exposure 30 min): NG; Bacterial growth after exposure (colony-forming units in 1 ml) ([2]; 4.0 wt %, exposure 60 min): NG; Bactericidal effect ([3]; 4.0%, exposure from 15 min): sustained bactericidal effect; Bacterial growth after exposure (colony-forming units in 1 ml) ([4]; 2.0 wt %, exposure 60 min): >300 CFU; Bactericidal effect ([4]; 4.0%, exposure from 15 min): sustained bactericidal effect
C=CC(=O)[O-].CCCCCCCCCCC(=O)[O-].[Zn+2] [Zinc acrylate-undecylate]	10	12															Tolerance time ([1]; Paper impregnated with petrolatum base, additive content 4.7 wt %, untreated control 15 days): 20 days
Copper methacrylate-sorbate			>300 CFU	78	45 CFU and 53 CFU	1 CFU	NG	NG	NG	>300 CFU	85 CFU	35 CFU and 43 CFU	NG	NG	NG	NG	Bactericidal effect ([2]; exposure from 15 min): sustained bactericidal effect; Bacterial growth after exposure (colony-forming units in 1 ml) ([3]; 2.0 wt %, exposure 60 min): 5 CFU and 4 CFU; Bactericidal effect ([3]; 4.0%, exposure from 15 min): sustained bactericidal effect; Bactericidal effect ([4]; 4.0%, exposure from 15 min): sustained bactericidal effect
Copper methacrylate-valerate	16																
Zinc methacrylate-butyrate	11	10															
Zinc methacrylate-myristate	12																
